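Here, GI50 denotes the concentration required for 50% inhibition of growth. TGI denotes the concentration required for complete inhibition of growth.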
What was measured:
Test in all cases: inhibition of tumour cell growth, NCI panel, 384-well format
UACC-257 melanoma = tested on: UACC-257 melanoma
MDA-MB-231 breast = tested on: MDA-MB-231 breast
OVCAR-8 ovarian = tested on: OVCAR-8 ovarian
SNB-75 CNS = tested on: SNB-75 CNS
HS 578T breast = tested on: HS 578T breast
MDA-MB-468 breast = tested on: MDA-MB-468 breast
T-47D breast = tested on: T-47D breast
HCC-2998 colon = tested on: HCC-2998 colon
SN12C renal = tested on: SN12C renal
SK-MEL-2 melanoma = tested on: SK-MEL-2 melanoma
ACHN renal = tested on: ACHN renal
SNB-19 CNS = tested on: SNB-19 CNS
786-0 renal = tested on: 786-0 renal

Q: COc1ccc([C@@H](O)c2cc(-c3ncnc4cc(N5CCOCC5)ccc34)c(F)cc2Cl)nn1 was tested. Which GI50 (UACC-257 melanoma) did it give?
A: 3.59 µM

Q: And the TGI (UACC-257 melanoma)?
A: 17.8 µM

Q: What about the GI50 (MDA-MB-231 breast) of the same molecule?
A: 3.52 µM

Q: And the TGI (MDA-MB-231 breast)?
A: 37.4 µM

Q: What about the GI50 (OVCAR-8 ovarian) of the same molecule?
A: 3.97 µM

Q: What about the TGI (OVCAR-8 ovarian) of the same molecule?
A: 22.4 µM

Q: And the GI50 (SNB-75 CNS)?
A: 0.668 µM

Q: And the TGI (SNB-75 CNS)?
A: 3.15 µM

Q: And the GI50 (HS 578T breast)?
A: 0.864 µM

Q: What about the TGI (HS 578T breast) of the same molecule?
A: 3.7 µM

Q: What about the GI50 (MDA-MB-468 breast) of the same molecule?
A: 1.03 µM

Q: What about the TGI (MDA-MB-468 breast) of the same molecule?
A: 4.31 µM

Q: And the GI50 (T-47D breast)?
A: 0.531 µM

Q: And the TGI (T-47D breast)?
A: 2.61 µM

Q: What about the GI50 (HCC-2998 colon) of the same molecule?
A: 3.21 µM

Q: What about the TGI (HCC-2998 colon) of the same molecule?
A: 11.4 µM

Q: What about the GI50 (SN12C renal) of the same molecule?
A: 1.47 µM

Q: And the TGI (SN12C renal)?
A: 17.1 µM

Q: What about the GI50 (SK-MEL-2 melanoma) of the same molecule?
A: 16.1 µM

Q: What about the TGI (SK-MEL-2 melanoma) of the same molecule?
A: 31.2 µM

Q: And the GI50 (ACHN renal)?
A: 2.38 µM

Q: What about the TGI (ACHN renal) of the same molecule?
A: 16.5 µM

Q: What about the GI50 (SNB-19 CNS) of the same molecule?
A: 7.21 µM

Q: And the TGI (SNB-19 CNS)?
A: 28.3 µM

Q: And the GI50 (786-0 renal)?
A: 2.6 µM

Q: What about the TGI (786-0 renal) of the same molecule?
A: 17.8 µM

Source: PubChem BioAssay (NCI)
